# Test results reported in ChEMBL document CHEMBL1149867, “Salinipyrones and pacificanones, mixed-precursor polyketides from the marine actinomycete Salinispora pacifica” (2008).
# Tested on: Splenocyte
# Test: Inhibition of IL5 production in mouse splenocyte model of allergic inflammation at 10 ug/ml
# Assay type: functional
smiles,measurement,value
CC[C@@H](O)[C@@H](C)/C=C(C)/C=C/c1oc(=O)c(C)c(O)c1C [SALINIPYRONE A],inhibition at 10 µg/mL,50%
